Patent US9108984B2, “Substituted diamino-pyrimidine and diamino-pyridine derivatives as PI3K inhibitors” (Incyte Corporation, priority 2011, dated 2015)

Columns and labels:
[1] = target: PI3Kδ (p110δ/p85α) (Homo sapiens (Human), UniProt O00329); test: PI3Kδ scintillation proximity assay (enzyme assay); format: biochemical; settings: PI3Kδ SPA, 20 μM ATP, 20 μM PIP2, 210 min
Source text: PI3Kδ Scintillation Proximity Assay
[γ-^33P]ATP (10 mCi/mL) was purchased from Perkin-Elmer (Waltham, Mass.). Lipid kinase substrate, D-myo-Phosphatidylinositol 4,5-bisphosphate (PtdIns(4,5)P2)D (+)-sn-1,2-di-O-octanoylglyceryl, 3-O-phospho linked (PIP2), CAS 204858-53-7, was purchased from Echelon Biosciences (Salt Lake City, Utah). PI3Kδ (p110δ/p85α) was purchased from Millipore (Bedford, Mass.). ATP, MgCl2, DTT, EDTA, MOPS and CHAPS were purchased from Sigma-Aldrich (St. Louis, Mo.). Wheat Germ Agglutinin (WGA) YSi SPA Scintillation Beads was purchased from GE healthcare life sciences (Piscataway, N.J.).
The kinase reaction was conducted in polystyrene 384-well matrix white plate from Thermo Fisher Scientific in a final volume of 25 μL. Inhibitors were first diluted serially in DMSO and added to the plate wells before the addition of other reaction components. The final concentration of DMSO in the assay was 0.5%. The PI3K assays were carried out at room temperature in 20 mM MOPS, pH 6.7, 10 mM MgCl2, 5 mM DTT and CHAPS 0.03%. Reactions were initiated by the addition of ATP, the final reaction mixture consisted of 20 μM PIP2, 20 μM ATP, 0.2 μCi [γ-^33P] ATP, 4 nM PI3Kδ. […] After the plate sealing, plates were shaken overnight at room temperature and centrifuged at 1800 rpm for 10 minutes, the radioactivity of the product was determined by scintillation counting on Topcount (Perkin-Elmer). […]

[2] = test system: Pfeiffer cells (diffuse large B cell lymphoma); test: Pfeiffer cell proliferation assay; format: cell-based; settings: Homo sapiens, [3H]-thymidine incorporation, 3-4 days
Experimental: Pfeiffer Cell Proliferation Assay
Pfeiffer cell line (diffuse large B cell lymphoma) was purchased from ATCC (Manassas, Va.) and maintained in the culture medium recommended (RPMI and 10% FBS). To measure the anti-proliferation activity of the compounds, the Pfeiffer cells were plated with the culture medium (2×10^3 cells/well/per 200 μl) into 96-well ultra-low binding plates (Corning, Corning, N.Y.), in the presence or absence of a concentration range of test compounds. After 3-4 days, [^3H]-thymidine (1 μCi/well) (PerkinElmer, Boston, Mass.) in PBS wass then added to the cell culture for an additional 12 hours before the incorporated radioactivity was separated by filtration with water through GF/B filters (Packard Bioscience, Meridenj, Conn.) and measured by liquid scintillation counting with a TopCount (Packard Bioscience).

Sequence of PI3Kδ (p110δ/p85α) (O00329 whole entry): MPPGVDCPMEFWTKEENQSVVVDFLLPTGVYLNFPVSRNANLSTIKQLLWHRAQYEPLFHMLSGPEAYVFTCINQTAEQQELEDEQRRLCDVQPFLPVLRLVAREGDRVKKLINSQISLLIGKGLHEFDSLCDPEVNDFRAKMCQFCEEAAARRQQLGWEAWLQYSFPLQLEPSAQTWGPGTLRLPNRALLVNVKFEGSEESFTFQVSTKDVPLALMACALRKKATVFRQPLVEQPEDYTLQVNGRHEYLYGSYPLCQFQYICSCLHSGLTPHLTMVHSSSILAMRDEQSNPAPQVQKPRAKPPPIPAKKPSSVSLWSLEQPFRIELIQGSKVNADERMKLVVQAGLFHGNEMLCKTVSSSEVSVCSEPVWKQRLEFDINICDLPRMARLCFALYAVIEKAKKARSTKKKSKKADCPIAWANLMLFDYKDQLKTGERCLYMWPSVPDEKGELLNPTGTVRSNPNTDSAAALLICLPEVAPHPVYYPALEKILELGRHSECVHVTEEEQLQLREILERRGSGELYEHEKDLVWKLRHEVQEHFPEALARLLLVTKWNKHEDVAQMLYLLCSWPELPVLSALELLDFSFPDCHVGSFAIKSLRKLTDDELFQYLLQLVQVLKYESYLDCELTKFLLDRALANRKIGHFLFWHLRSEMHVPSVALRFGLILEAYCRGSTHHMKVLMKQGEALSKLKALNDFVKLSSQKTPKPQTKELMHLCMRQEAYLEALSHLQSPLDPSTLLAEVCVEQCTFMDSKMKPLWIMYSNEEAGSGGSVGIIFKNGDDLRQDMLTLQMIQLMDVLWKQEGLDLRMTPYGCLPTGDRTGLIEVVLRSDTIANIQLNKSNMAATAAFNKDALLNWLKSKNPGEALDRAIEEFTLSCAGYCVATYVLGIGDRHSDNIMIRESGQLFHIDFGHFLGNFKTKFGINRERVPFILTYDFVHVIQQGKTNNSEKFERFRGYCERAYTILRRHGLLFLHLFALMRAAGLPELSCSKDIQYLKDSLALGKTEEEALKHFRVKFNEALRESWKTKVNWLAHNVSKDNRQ
Sequence of PI3Kδ (p110δ/p85α) (P27986 whole entry partner): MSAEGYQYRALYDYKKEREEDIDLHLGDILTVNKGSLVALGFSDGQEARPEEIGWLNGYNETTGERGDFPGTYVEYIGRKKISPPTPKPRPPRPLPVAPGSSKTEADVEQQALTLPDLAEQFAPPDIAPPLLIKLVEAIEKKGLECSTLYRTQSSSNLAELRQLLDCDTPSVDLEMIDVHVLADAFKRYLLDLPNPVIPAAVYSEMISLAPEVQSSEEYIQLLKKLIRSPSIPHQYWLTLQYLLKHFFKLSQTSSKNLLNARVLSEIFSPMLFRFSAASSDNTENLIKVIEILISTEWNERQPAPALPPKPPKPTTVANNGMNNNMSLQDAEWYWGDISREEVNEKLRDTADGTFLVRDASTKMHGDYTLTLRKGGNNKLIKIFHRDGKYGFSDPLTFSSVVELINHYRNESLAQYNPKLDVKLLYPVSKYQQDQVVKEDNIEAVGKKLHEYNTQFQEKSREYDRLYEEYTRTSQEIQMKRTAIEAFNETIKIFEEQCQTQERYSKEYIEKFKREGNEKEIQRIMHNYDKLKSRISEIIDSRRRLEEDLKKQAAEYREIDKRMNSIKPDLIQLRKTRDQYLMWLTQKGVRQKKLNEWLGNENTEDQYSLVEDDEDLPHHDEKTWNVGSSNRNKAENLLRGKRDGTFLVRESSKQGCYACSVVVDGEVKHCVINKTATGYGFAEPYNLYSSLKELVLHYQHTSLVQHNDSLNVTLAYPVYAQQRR

| IC50 [1] [nM] | IC50 [2] [nM] | SMILES |
| --- | --- | --- |
| < 20 | < 20 | Cc1csc2nc([C@H](C)Nc3ncnc(N)c3C#N)c(-c3cccc(F)c3)c(=O)n12 [Example 2, 4-amino-6-({(1S)-1-[6-(3-fluorophenyl)-3-methyl-5-oxo-5H-[1,3]thiazolo[3,2-a]pyrimidin-7-yl]ethyl}amino)pyrimidine-5-carbonitrile] |
| < 20 | < 20 | CC(Nc1ncnc(N)c1C#N)c1cc(Cl)c2ccnnc2c1-c1cccc(F)c1 (single isomer, unassigned) [Example 1, 4-Amino-6-({1-[5-chloro-8-(3-fluorophenyl)cinnolin-7-yl]ethyl}amino)-pyrimidine-5-carbonitrile] |
